The values that follow come from patent US20130317029A1 (PORTOLA PHARMACEUTICALS, INC., priority 2010, published 2013).

The structures appear in SMILES notation.

The test system of test [1] is ITAM signaling. The following applies: in response to various stimuli, including FcεR1 and BCR induced Syk activation; cited from earlier work.
The subject of test [2] is Src kinsase. The following applies: cited from earlier work.
Test [3] relates to JAK kinases. The following applies: cited from earlier work.
Test [4] has as its system lymphoma cell lines and primary human lymphoma samples. The following applies: cited from earlier work.
Test [5] deals with refractory NHL and chronic lymphocytic leukemia. The following applies: cited from earlier work.
In test [6] the target is T1, full length active recombinant SYK enzyme (Homo sapiens, UniProt P43405).
T1 construct: full length active recombinant SYK enzyme (Millipore, Calif.); purchased Millipore
Kind of test: Inhibition of Syk tyrosine phosphorylation activity (LANCE TR-FRET kinase assay). It counts as biochemical. In outline: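 Full-length active recombinant SYK (1 nM) phosphorylated biotinylated SYK-specific peptide (550 nM) with 100 μM ATP in 50 mM Tris pH 7.5, 5 mM MgCl2, 1 mM DTT, 3% DMSO, 1 h at room temperature. EDTA quench with Eu-anti-phosphotyrosine and SA-APC, 1 h TR-FRET read; IC50 by non-linear regression.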

Turning to `COc1cc(Nc2ncc(F)c(Nc3ccc4c(n3)NC(=O)C(C)(C)O4)n2)cc(OC)c1OC` [Example R406], the “inhibition of ITAM signaling” value in test [1] was “inhibit ITAM signaling”. The “activity against Src kinase” value in test [2] is listed as “not against”. In test [3], the “activity against JAK kinases” value is on record as “active”. Also, the BCR signaling entry in test [4] (lymphoma cell lines and primary human lymphoma samples) is “attenuates BCR signaling”. The apoptosis result in test [4] (lymphoma cell lines) is listed as “resulting in apoptosis”. The “phase II clinical trial outcome” value in test [5] is “favorable results”. For the compound `CC(C)[C@@H](Nc1nc(Nc2cccc(-c3ncccn3)c2)c(C(N)=O)c(=O)[nH]1)C(N)=O` [Example 28, (R)-2-(1-amino-3-methyl-1-oxobutan-2-ylamino)-6-oxo-4-(3-(pyrimidin-2-yl)phenylamino)-1,6-dihydropyrimidine-5-carboxamide], in test [6], the IC50 was in the range of 10 to 100 nM. Turning to `CC(C)[C@@H](Nc1nc(Nc2ccc(-n3cccn3)cc2)c(C(N)=O)c(=O)[nH]1)C(N)=O` [Example 19], in test [6], the IC50 was in the range of 1 to 10 nM. As for `CC(C)C[C@@H](Nc1nc(Nc2ccc(-n3cccn3)cc2)c(C(N)=O)c(=O)[nH]1)C(N)=O` [Example 18], the IC50 in test [6] was in the range of 1 to 10 nM.

Regarding `CC(C)C[C@@H](Nc1nc(Nc2cccc(-n3nccn3)c2)c(C(N)=O)c(=O)[nH]1)C(N)=O` [Example 7, (R)-4-(3-(2H-1,2,3-triazol-2-yl)phenylamino)-2-(1-amino-4-methyl-1-oxopentan-2-ylamino)-6-oxo-1,6-dihydropyrimidine-5-carboxamide], the IC50 in test [6] is 10 to 100 nM. Take `CNC(=O)[C@@H](CC(C)C)Nc1nc(Nc2ccc3[nH]ncc3c2)c(C(N)=O)c(=O)[nH]1` [Example 105, (R)-4-(1H-indazol-5-ylamino)-2-(4-methyl-1-(methylamino)-1-oxopentan-2-ylamino)-6-oxo-1,6-dihydropyrimidine-5-carboxamide]: the IC50 in test [6] was in the range of 100 to 1000 nM. `CNC(=O)[C@@H](CC(C)C)Nc1nc(Nc2ccc3ncsc3c2)c(C(N)=O)c(=O)[nH]1` [Example 103, (R)-4-(benzo[d]thiazol-6-ylamino)-2-(4-methyl-1-(methylamino)-1-oxopentan-2-ylamino)-6-oxo-1,6-dihydropyrimidine-5-carboxamide]: the IC50 in test [6] is 10 to 100 nM. For `Cc1cc(C)cc(Nc2nc(Nc3ccc(S(N)(=O)=O)cc3)[nH]c(=O)c2C(N)=O)c1` [Example 61, 4-(4-(3,5-dimethylphenylamino)-5-carboxamide-6-oxo-1,6-dihydropyrimidin-2-ylamino)benzenesulfonamide], the IC50 in test [6] fell in the range of 100 to 1000 nM. In the case of `CC[C@@H](Nc1nc(Nc2ccc3ncsc3c2)c(C(N)=O)c(=O)[nH]1)C(N)=O` [Example 31], in test [6], the 50% inhibitory concentration (IC50) was under 1 nM. Turning to `COc1nc(Nc2ccc(N3CCN(C(C)=O)CC3)cc2)nc(NC2CC2)c1C(N)=O` [Example 69, 2-(4-(4-acetylpiperazin-1-yl)phenylamino)-4-(cyclopropylamino)-6-methoxypyrimidine-5-carboxamide], in test [6], the IC50 is over 1000 nM.

Consider `CC[C@@H](Nc1nc(Nc2cccc(C)c2)c(C(N)=O)c(=O)[nH]1)C(N)=O` [Example 11, (R)-2-(1-amino-1-oxobutan-2-ylamino)-6-oxo-4-(m-tolylamino)-1,6-dihydropyrimidine-5-carboxamide], for which the IC50 in test [6] was 1 to 10 nM. For the compound `CC(C)C[C@@H](Nc1nc(Nc2ccc3[nH]ncc3c2)c(C(N)=O)c(=O)[nH]1)C(N)=O` [Example 25, (R)-4-(1H-indazol-5-ylamino)-2-(1-amino-4-methyl-1-oxopentan-2-ylamino)-6-oxo-1,6-dihydropyrimidine-5-carboxamide], the IC50 in test [6] was under 1 nM. As for `CC(C)C[C@@H](Nc1nc(Nc2cccc(-n3cccn3)c2)c(C(N)=O)c(=O)[nH]1)C(N)=O` [Example 32], the IC50 in test [6] lay in the range of 1 to 10 nM. `Cc1cc(C)cc(Nc2nc(N[C@@H](CN)C(C)C)[nH]c(=O)c2C(N)=O)c1` [Example 12, (R)-2-(1-amino-3-methylbutan-2-ylamino)-4-(3,5-dimethylphenylamino)-6-oxo-1,6-dihydropyrimidine-5-carboxamide]: the concentration for half-maximal inhibition (IC50) in test [6] is 1 to 10 nM. Regarding `COCCOc1ccc(Nc2nc(N[C@H](CC(C)C)C(N)=O)[nH]c(=O)c2C(N)=O)cc1` [Example 93, (R)-2-(1-amino-4-methyl-1-oxopentan-2-ylamino)-4-(4-(2-methoxyethoxy)phenylamino)-6-oxo-1,6-dihydropyrimidine-5-carboxamide], in test [6], the IC50 is 1 to 10 nM.

Turning to `CC[C@@H](Nc1nc(Nc2cccc(OCCOC)c2)c(C(N)=O)c(=O)[nH]1)C(N)=O` [Example 99, (R)-2-(1-amino-1-oxobutan-2-ylamino)-4-(3-(2-methoxyethoxy)phenylamino)-6-oxo-1,6-dihydropyrimidine-5-carboxamide], the IC50 in test [6] was 1 to 10 nM.
